Experimental data published in patent US20240174632A1, “INHIBITING HUMAN INTEGRIN (ALPHA-4) (BETA-7)” (Morphic Therapeutic, Inc., priority 2019, published 2024).

Assays:
α4β7 [1] = molecular target: T1, α4β7 (Homo sapiens, UniProt P13612+P26010); assay: Cell adhesion assay, RPMI8866 cells adhering to MAdCAM coated plates; format: cell-based; conditions: RPMI8866 cells on recombinant human MAdCAM coated plates; Tables 3A, 3B, 4; read-out: CA Assay (Example 7) IC50
T1 construct: endogenous in cells; host or cells: RPMI 8866 cells
T1 sequence (P13612 34-1032): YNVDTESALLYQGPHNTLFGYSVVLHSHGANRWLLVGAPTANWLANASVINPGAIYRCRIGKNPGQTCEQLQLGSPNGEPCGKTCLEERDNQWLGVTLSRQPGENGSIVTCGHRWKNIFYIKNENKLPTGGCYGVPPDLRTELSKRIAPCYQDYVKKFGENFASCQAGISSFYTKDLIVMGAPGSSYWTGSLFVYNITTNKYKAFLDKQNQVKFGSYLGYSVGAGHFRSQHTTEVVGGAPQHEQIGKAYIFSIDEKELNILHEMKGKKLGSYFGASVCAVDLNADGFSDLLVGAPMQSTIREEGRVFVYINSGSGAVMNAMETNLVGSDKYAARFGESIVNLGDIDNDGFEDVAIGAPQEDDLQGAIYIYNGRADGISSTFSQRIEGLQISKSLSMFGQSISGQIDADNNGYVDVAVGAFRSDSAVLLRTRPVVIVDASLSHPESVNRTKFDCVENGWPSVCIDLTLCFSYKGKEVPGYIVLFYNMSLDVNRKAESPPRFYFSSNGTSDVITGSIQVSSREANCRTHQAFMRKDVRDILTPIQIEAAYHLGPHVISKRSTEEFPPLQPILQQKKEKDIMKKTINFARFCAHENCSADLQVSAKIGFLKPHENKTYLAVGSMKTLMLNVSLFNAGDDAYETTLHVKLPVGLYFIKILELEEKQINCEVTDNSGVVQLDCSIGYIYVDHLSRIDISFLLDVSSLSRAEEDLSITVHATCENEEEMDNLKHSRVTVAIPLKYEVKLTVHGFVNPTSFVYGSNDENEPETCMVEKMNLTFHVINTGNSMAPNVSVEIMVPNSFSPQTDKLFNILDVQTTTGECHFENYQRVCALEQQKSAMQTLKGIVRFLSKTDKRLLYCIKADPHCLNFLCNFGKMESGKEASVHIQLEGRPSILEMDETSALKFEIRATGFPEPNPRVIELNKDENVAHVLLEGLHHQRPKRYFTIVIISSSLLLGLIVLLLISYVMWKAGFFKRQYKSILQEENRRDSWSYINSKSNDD
T1 sequence (P26010 20-798): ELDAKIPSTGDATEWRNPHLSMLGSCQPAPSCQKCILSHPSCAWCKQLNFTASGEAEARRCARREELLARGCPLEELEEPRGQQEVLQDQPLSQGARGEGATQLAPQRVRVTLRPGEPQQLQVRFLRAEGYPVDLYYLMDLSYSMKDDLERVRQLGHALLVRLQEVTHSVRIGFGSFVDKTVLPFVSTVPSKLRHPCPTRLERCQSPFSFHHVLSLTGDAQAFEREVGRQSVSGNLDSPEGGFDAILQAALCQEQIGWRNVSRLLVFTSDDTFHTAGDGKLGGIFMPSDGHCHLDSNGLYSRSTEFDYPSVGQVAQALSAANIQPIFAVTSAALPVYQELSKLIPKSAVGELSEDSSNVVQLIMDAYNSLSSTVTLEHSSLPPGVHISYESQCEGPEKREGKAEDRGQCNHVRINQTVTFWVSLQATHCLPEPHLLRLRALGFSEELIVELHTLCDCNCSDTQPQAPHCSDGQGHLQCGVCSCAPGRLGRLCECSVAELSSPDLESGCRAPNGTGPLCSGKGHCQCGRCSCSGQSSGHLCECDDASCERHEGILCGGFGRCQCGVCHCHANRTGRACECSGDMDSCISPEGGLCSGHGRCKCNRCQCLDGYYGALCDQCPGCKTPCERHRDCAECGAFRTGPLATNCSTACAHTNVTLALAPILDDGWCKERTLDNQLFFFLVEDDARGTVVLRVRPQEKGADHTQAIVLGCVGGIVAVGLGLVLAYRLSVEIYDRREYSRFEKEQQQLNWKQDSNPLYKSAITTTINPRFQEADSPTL
Protocol: Three in vitro assays were used to examine the α4β7 mechanistic process used by cells: 1) ligand:receptor affinity, 2) the avidity of those interactions on a cell's surface, and 3) how those interactions fare under an imposing force. In Example 5, a Fluorescence Polarization (FP) assay is used to measure compound activity through binding competition with the fluorescein-labeled peptide. In Example 6, the potency of compounds against α4β7 is measured in the cell-based ligand binding assay (LBA), using RPMI 8866 cells incubated with the compound samples in competition with soluble MAdCAM-1 ligand. In Example 7, activity of compounds is evaluated in a cell adhesion assay that mechanistically tests what occurs in vivo when trafficking cells utilize α4β7 to adhere to MAdCAM-1 expressing HEVs of the gut during the extravasation process. […] Unattached cells are removed and the remaining adherent cells are quantified. […]
To each well of a 96 well plate, 100 ug of recombinant human MAdCAM in 100 ul PBS is added and incubated overnight at 4° C. […] Plate is incubated on shaker for 2 minutes at 200 RPM followed by another 8 minutes off shaker before having the luminescence read on a Biotek Citation 5 plate reader. Raw data is converted to % inhibition compared to bottom of curve and analyzed using a 4-parameter non linear curve in Prism to determine IC50 and IC90.

integrin α4β7 = molecular target: T2, integrin α4β7 (Homo sapiens, UniProt P13612+P26010); assay: Fluorescence Polarization (FP) assay for α4β7 binding, competition with fluorescein-labeled peptide; conditions: 6.5 nM integrin α4β7, 3 nM fluorescein-labeled peptide, 2 mM MnCl2; Tables 3A, 3B, 4; read-out: FP Assay (Example 5) IC50
T2 sequence (P13612 34-1032): T1 sequence (P13612 34-1032)
T2 sequence (P26010 20-798): T1 sequence (P26010 20-798)
Protocol: (§1) Three in vitro assays were used to examine the α4β7 mechanistic process used by cells: 1) ligand:receptor affinity, 2) the avidity of those interactions on a cell's surface, and 3) how those interactions fare under an imposing force. In Example 5, a Fluorescence Polarization (FP) assay is used to measure compound activity through binding competition with the fluorescein-labeled peptide. In Example 6, the potency of compounds against α4β7 is measured in the cell-based ligand binding assay (LBA), using RPMI 8866 cells incubated with the compound samples in competition with soluble MAdCAM-1 ligand. In Example 7, activity of compounds is evaluated in a cell adhesion assay that mechanistically tests what occurs in vivo when trafficking cells utilize α4β7 to adhere to MAdCAM-1 expressing HEVs of the gut during the extravasation process. […] Unattached cells are removed and the remaining adherent cells are quantified.
Fluorescence Polarization (FP) assays were used to measure compound activity through binding competition with the fluorescein-labeled peptide […]{Lys(FITC)}. […] After the fluorescein-labeled peptide was added, the assay was incubated at 22° C. for 1 hour and fluorescence polarization was measured. IC50 values were determined by non-linear regression, four-parameter curve fitting.

α4β7 [2] = molecular target: T1, α4β7; assay: Cell-based ligand binding assay (LBA), RPMI 8866 cells, competition with soluble MAdCAM-1-Fc; conditions: MAdCAM-1-Fc Dylight 650, flow cytometry, Tables 3A, 3B, 4, read-out: LB Assay (Example 6) IC50
Protocol: as §1
5 ul of 33 nM MAdCAM-1-Fc fluorescently labeled with Dylight 650 in 50 mM HEPES pH 7.3, 150 mM sodium chloride, and 1% bovine serum albumin was added to the cells. […] Fluorescence intensity for each cell was measured via flow cytometry. […] Median fluorescence intensity for Dylight 650 was determined for each sample and concentration-response curves were analyzed for IC50 values using 4-parameter non-linear regression analysis.

## Cc1cc(=O)n([C@@H](CC(C)C)C(=O)N[C@@H](CC(=O)O)c2cc(-c3c(C)cccc3C)cc(F)c2F)cc1CCN1CC(F)C1 [D-P2, (3S)-3-(4,5-difluoro-2′,6′-dimethylbiphenyl-3-yl)-3-(2-(5-(2-(3-fluoroazetidin-1-yl)ethyl)-4-methyl-2-oxopyridin-1(2H)-yl)-4-methylpentanamido)propanoic acid]
α4β7 [1]
  IC50: < 5 nM
Integrin α4β7
  IC50: < 10 nM

## COc1ccc(C)c(-c2cc(C)c(F)c([C@H](CC(=O)O)NC(=O)C(CC(C)C)n3cc(CCN4CCC4)c(C(F)(F)F)cc3=O)c2)c1C (single isomer, unassigned) [AG-P2]
α4β7 [2]
  IC50: ≤ 10 nM
Integrin α4β7
  IC50: < 10 nM
